Where a SMILES comes first, the peptide text is derived from it. The star is where a group is joined. Cbz = O=C(OCc1ccccc1)*; CH2F = FC*
Tested on: primary neurons
Assay: Death of primary neurons with purified cis P-tau
Assay type: cell-based

With `COC(=O)C[C@H](NC(=O)[C@H](C)NC(=O)[C@@H](NC(=O)OCc1ccccc1)C(C)C)C(=O)CF` [Z-VAD-FMK] (Cbz-Val-Ala-Asp(OMe)-CH2F) the “death in primary neurons induced by purified cis P-tau” value was “blocked”.

— patent US20230348578A1, “CONFORMATION-SPECIFIC ANTIBODIES THAT BIND TAU PROTEIN AND USES THEREOF” (Beth Israel Deaconess Medical Center, Inc., priority 2020, published 2023)
